In article PMC8398059, “Peptoids with Antibiofilm Activity against the Gram Negative Obligate Anaerobe, Fusobacterium nucleatum” (Molecules, 2021):
Non-standard residues stand in square brackets, D forms with d. Residues, ends and D or L forms follow the SMILES beside them. Gly(N-(CH2)6NH2) = NCCCCCCNCC(=O)O; Gly(N-2-aminoethyl) = NCCNCC(=O)O; Nspe = C[C@H](NCC(=O)O)c1ccccc1; Nphe = O=C(O)CNCc1ccccc1; Nlys = NCCCCNCC(=O)O

Tests used:
Assay type in all cases: cell-based
[1] = test system: human erythrocytes; test: Haemolytic assay; details: peptoid 100 µM, 37 °C, 1 h, absorbance 450 nm; positive control 1% Triton x-100; n = 3 independent experiments, 3 replicates each
Description: The haemolytic assay was employed to determine the potential cytotoxicity of the peptoids against human red blood cells. Blood samples were collected with ethical approval and informed consent in vacutainer containers with dipotassium ethylene- diaminetetraacetic acid (K2-EDTA). Blood was then transferred to a 50 mL tube and centrifuged at 1200× g for 5 min at room temperature. The supernatant was removed and PBS was added to the original volume of sample obtained. This step was repeated a further 3 times. The red blood cells were then diluted to 8% of their original volume for use in the haemolytic assay. A 1% solution of Triton x-100 in PBS served as a positive control, and PBS was used as a negative control.
Peptoids 1, 2, 3, 4, 5, 6, 7, 8 and 9 were diluted in PBS to 200 µM. A total volume of 100 µL of each peptoid was placed in the wells of a v-bottomed 96-well microtitre plate. Red blood cells (100 µL), prepared as outlined above, were then added. The final peptoid concentration in each well was therefore 100 µM. The plate was sealed with an adhesive film to prevent evaporation and incubated at 37 °C for 1 h. Following this time, the plate was centrifuged at 4000 RPM for 5 min to pellet unlysed red blood cells. Following this step, 100 µL of supernatant was carefully removed from each well and added to a flat-bottomed 96-well microtitre plate. The absorbance was read at 450 nm using a Tecan Genios (Männedorf, Switzerland) plate reader, and the percentage of red blood cells lysed was calculated.

[2] = test system: human primary gingival fibroblasts; test: MTT cell viability assay; details: peptoid 1 µM, 24 h, 37 °C; n = 3 independent experiments, 6 replicates each
Description: Cultured primary gingival fibroblast cells were obtained with ethical approval and informed consent, and were grown as previously described. Cells were seeded in 96-well plates at a concentration of 1 × 10^5 cells/mL (100 µL per well). Plates were incubated at 37 °C for 48 h to allow cells to reach confluence. Peptoids 1, 3, 4, 5, 6, 7 and 9 were diluted to 200 µM, 20 µM and 2 µM. The culture medium was removed and replaced with 50 µL of Dulbecco’s Modified Eagle’s Medium (DMEM) and 50 µL of the relevant peptoid. The cells were incubated for 24 h at 37 °C. After this time, 10 µL of 3-(4, 5- dimethylthiazol-2-yl)-2,5-diphenyltetrazolium bromide (MTT) reagent (Sigma-Aldrich, Poole, UK) was added to each well and the plate was incubated for a further 3 h at 37 °C. The medium was removed by aspiration and the wells were allowed to dry for 20 min. Then, 200 µL of dimethyl sulfoxide (DMSO) (Sigma-Aldrich, Poole, UK) was added to all wells and the plate was placed in an incubator for 30 min. The absorbance of the wells was read in a Tecan Genios (Männedorf, Switzerland) plate reader at 510 nm after 60 s of orbital shaking.

[3] = test system: Fusobacterium nucleatum biofilm; test: Biofilm inhibition assay with PMA-qPCR; details: strain NCTC 10562, anaerobic, 96-well plate, 48 h with peptoid + 48 h maturation, n = 3 independent experiments
Description: The F. nucleatum type strain (NCTC 10562, originally isolated from human, inflamed gingival tissue) was obtained from the National Collection of Type Cultures. The optical density (OD) of an overnight culture was measured spectrophotometrically at 570 nm and diluted with fresh broth to an OD of 0.30–0.35. The culture was further diluted 1 in 50 with anaerobic broth, giving a final inoculum concentration of approximately 5 × 10^6 CFU/mL. A biofilm inhibition assay was undertaken in a 96-well plate format. Peptoids 4 and 9 were added along with the inoculum (90 µL of inoculum in broth and 10 µL of peptoid solution) to each well, to yield peptoid concentrations of 1 µM and 10 µM. A solution containing 10 µL of PBS and 90 µL of anaerobic broth acted as an untreated control. Biofilms were allowed to develop in the presence of peptoids 4 or 9 for 48 h. After 48 h biofilm development, planktonic cells were removed by gently washing three times with PBS and then replacing the broth with 100 µL of fresh anaerobic broth prior to a further 48 h incubation for biofilm maturation. After this time, the wells were gently washed three times with 100 µL of PBS to remove planktonic cells. Plates were then sealed with parafilm, and the biofilms were dislodged from the wells in an ultrasonic bath for 20 min. Plates were then returned to the anaerobic cabinet and the dislodged biofilm samples were collected in Eppendorf tubes.
Propidium monoazide (PMA)-qPCR was undertaken essentially as previously described. Briefly, PMA (Biotium, Fremont, CA, USA), was diluted 1 in 50 with PBS. The diluted PMA was then added to the dislodged biofilm samples in a 1:1 ratio in an Eppendorf tube, to give a final PMA concentration of 200 µM. The Eppendorfs were incubated at 37 °C for 10 min in the dark and then placed under a broad spectrum LED floodlight (ELRD, HL60 ^0 LEDx Max 0.1V) for 10 min. During this time, the Eppendorfs were inverted several times. Bacterial DNA was then extracted using the Qiagen blood and tissue kit (Germantown, MD, USA) according to the manufacturer’s instructions. Briefly, bacterial samples released from biofilms were centrifuged at 14000 RPM for 6 min, and the supernatant was removed. Bacterial pellets were resuspended in 200 µL of AL buffer, and 25 µL of proteinase K was added to each Eppendorf. The suspensions were then heated to 56 °C for 30 min with shaking. Following this, 200 µL of ethanol was added to each Eppendorf and mixed gently. The contents were placed in fresh spin columns in 2 mL collection tubes. The spin columns were centrifuged at 8000 RPM for 2 min. The flow-through and the collection tubes were discarded. The spin columns were placed in fresh collection tubes, and 500 µL of AW1 buffer was added to each column. […]

| SMILES | Percentage lysis of human erythrocytes [1] | Viability of gingival fibroblasts (MTT) vs untreated controls [2] | F. nucleatum biofilm formation (live cell numbers by PMA-qPCR) ([3]; peptoid 1 µM) | F. nucleatum biofilm formation (live cell numbers by PMA-qPCR) ([3]; peptoid 10 µM) |
| --- | --- | --- | --- | --- |
| NCCCCNCC(=O)N(CC(=O)N(CC(=O)N(CCCCN)CC(=O)N(CC(=O)N(CC(=O)N(CCCCN)CC(=O)N(CC(=O)N(CC(=O)N(CCCCN)CC(=O)N(CC(=O)N(CC(N)=O)Cc1ccccc1)Cc1ccccc1)Cc1ccccc1)Cc1ccccc1)Cc1ccccc1)Cc1ccccc1)Cc1ccccc1)Cc1ccccc1 [Peptoid 1] (H-[Nlys][Nphe][Nphe][Nlys][Nphe][Nphe][Nlys][Nphe][Nphe][Nlys][Nphe][Nphe]-NH2; N-terminus assumed) | ≥ 10% | – | – | – |
| C[C@@H](c1ccccc1)N(CC(N)=O)C(=O)CN(C(=O)CN(CCCCN)C(=O)CN(C(=O)CN(C(=O)CN(CCCCN)C(=O)CN(C(=O)CN(C(=O)CNCCCCN)[C@@H](C)c1ccccc1)[C@@H](C)c1ccccc1)[C@@H](C)c1ccccc1)[C@@H](C)c1ccccc1)[C@@H](C)c1ccccc1 [Peptoid 3] (H-[Nlys][Nspe][Nspe][Nlys][Nspe][Nspe][Nlys][Nspe][Nspe]-NH2; N-terminus assumed) | ≥ 10% | – | – | – |
| NCCNCC(=O)N(CC(=O)N(CC(=O)N(CCN)CC(=O)N(CC(=O)N(CC(=O)N(CCN)CC(=O)N(CC(=O)N(CC(=O)N(CCN)CC(=O)N(CC(=O)N(CC(N)=O)Cc1ccccc1)Cc1ccccc1)Cc1ccccc1)Cc1ccccc1)Cc1ccccc1)Cc1ccccc1)Cc1ccccc1)Cc1ccccc1 [Peptoid 4, (NaeNpheNphe)4-NH2] (H-[Gly(N-2-aminoethyl)][Nphe][Nphe][Gly(N-2-aminoethyl)][Nphe][Nphe][Gly(N-2-aminoethyl)][Nphe][Nphe][Gly(N-2-aminoethyl)][Nphe][Nphe]-NH2; N-terminus assumed) | ≥ 10% | not to alter gingival fibroblast viability | statistically significant reduction in biofilm formation | statistically significant reduction in biofilm formation |
| C[C@@H](c1ccccc1)N(CC(N)=O)C(=O)CN(C(=O)CN(CCN)C(=O)CN(C(=O)CN(C(=O)CN(CCN)C(=O)CN(C(=O)CN(C(=O)CNCCN)[C@@H](C)c1ccccc1)[C@@H](C)c1ccccc1)[C@@H](C)c1ccccc1)[C@@H](C)c1ccccc1)[C@@H](C)c1ccccc1 [Peptoid 5] (H-[Gly(N-2-aminoethyl)][Nspe][Nspe][Gly(N-2-aminoethyl)][Nspe][Nspe][Gly(N-2-aminoethyl)][Nspe][Nspe]-NH2; N-terminus assumed) | ≥ 10% | – | – | – |
| NCCCCCCNCC(=O)N(CC(=O)N(CC(=O)N(CCCCCCN)CC(=O)N(CC(=O)N(CC(=O)N(CCCCCCN)CC(=O)N(CC(=O)N(CC(=O)N(CCCCCCN)CC(=O)N(CC(=O)N(CC(N)=O)Cc1ccccc1)Cc1ccccc1)Cc1ccccc1)Cc1ccccc1)Cc1ccccc1)Cc1ccccc1)Cc1ccccc1)Cc1ccccc1 [Peptoid 6] (H-[Gly(N-(CH2)6NH2)][Nphe][Nphe][Gly(N-(CH2)6NH2)][Nphe][Nphe][Gly(N-(CH2)6NH2)][Nphe][Nphe][Gly(N-(CH2)6NH2)][Nphe][Nphe]-NH2; N-terminus assumed) | less than 5% | – | – | – |
| NCCCCCCNCC(=O)N(CC(=O)N(CC(=O)N(CCCCCCN)CC(=O)N(CC(=O)N(CC(=O)N(CCCCCCN)CC(=O)N(CC(=O)N(CC(N)=O)Cc1ccccc1)Cc1ccccc1)Cc1ccccc1)Cc1ccccc1)Cc1ccccc1)Cc1ccccc1 [Peptoid 7] (H-[Gly(N-(CH2)6NH2)][Nphe][Nphe][Gly(N-(CH2)6NH2)][Nphe][Nphe][Gly(N-(CH2)6NH2)][Nphe][Nphe]-NH2; N-terminus assumed) | less than 5% | – | – | – |
| C[C@@H](c1ccccc1)N(CC(N)=O)C(=O)CN(C(=O)CN(CCCCCCN)C(=O)CN(C(=O)CN(C(=O)CN(CCCCCCN)C(=O)CN(C(=O)CN(C(=O)CNCCCCCCN)[C@@H](C)c1ccccc1)[C@@H](C)c1ccccc1)[C@@H](C)c1ccccc1)[C@@H](C)c1ccccc1)[C@@H](C)c1ccccc1 [Peptoid 9, (NahNspeNspe)3-NH2] (H-[Gly(N-(CH2)6NH2)][Nspe][Nspe][Gly(N-(CH2)6NH2)][Nspe][Nspe][Gly(N-(CH2)6NH2)][Nspe][Nspe]-NH2; N-terminus assumed) | less than 5% | not to alter gingival fibroblast viability | statistically significant reduction in biofilm formation | statistically significant reduction in biofilm formation |
